Measurements published in ChEMBL document CHEMBL3751793, “Preparation of N-Phenyl-lactam Derivatives Capable of Stimulating Neurogenesis and Their Use in the Treatment of Neurological Disorders” (2015).

Each compound was assayed on NSC (assay: Increase in cell proliferation of human NSC cells assessed as increase in ATP level after 4 days by CelltiterGlo assay).
Assay type: functional
With `COc1cc(N2CCC(c3cccc(Cl)c3)C2=O)ccc1-c1cn[nH]c1` (stereo not drawn) the EC150 was 65.9 nM. `COc1cccc(C2CCN(c3ccc(-c4cnco4)c(OC)c3)C2=O)c1` (stereo not drawn) showed an EC150 of 81.4 nM. With `COc1cccc(C2CCN(c3ccc(-c4cn[nH]c4)c(OC)c3)C2=O)c1` (stereo not drawn) the EC150 was 29.9 nM. Work on `COc1cc(N2CCN(Cc3cccc(OC(F)(F)F)c3)C2=O)ccc1-c1cn[nH]c1` yielded an EC150 of 9.2 nM. Work on `COc1cccc(C2CCN(c3ccc(-c4ccncc4)cc3)C2=O)c1` (stereo not drawn) yielded an EC150 of 15.5 nM. For `COc1cc(N2CCN(Cc3ccccc3C(F)(F)F)C2=O)ccc1-c1ccncc1`, the EC150 was 35.1 nM. In the case of `COc1cc(N2CCC(c3ccccc3)C2=O)ccc1-c1cn[nH]c1` (stereo not drawn), the EC150 is reported as 41.4 nM. `COc1cccc(CN2CCN(c3ccc(-c4cn[nH]c4)c(OC)c3)C2=O)c1` was tested, and the EC150 was 23.9 nM. With `COc1cccc(CN2CCN(c3ccc(-c4cn[nH]c4)c(F)c3)C2=O)c1` the EC150 was 15.7 nM. `COc1cc(N2CCN(Cc3cccc(F)c3)C2=O)ccc1-c1cn[nH]c1` was tested, and the EC150 was 47 nM. `CCOc1cccc(CN2CCN(c3ccc(-c4cn[nH]c4)c(OC)c3)C2=O)c1` showed an EC150 of 73.9 nM. With `COc1cc(N2CCN(Cc3cccc(C(F)(F)F)c3)C2=O)ccc1-c1cn[nH]c1` the EC150 was 8.6 nM. In the case of `COc1cc(N2CCN(Cc3cccc(C)c3)C2=O)ccc1-c1ccncc1`, the EC150 is reported as 29.8 nM. Compound `COc1cc(N2CCN(Cc3ccncc3)C2=O)ccc1-c1cn[nH]c1` has an EC150 of 42 nM. Work on `COc1cccc(C2CCN(c3ccc(-c4ccncc4)c(OC)c3)C2=O)c1` (stereo not drawn) yielded an EC150 of 61.3 nM. Compound `COc1cccc(CN2CCN(c3ccc(-c4cn[nH]c4)cc3F)C2=O)c1` has an EC150 of 41.6 nM. `O=C1C(c2ccc(F)cc2)CCN1c1ccc(-c2cn[nH]c2)cc1` (stereo not drawn) showed an EC150 of 41.7 nM. Work on `COc1cc(N2CCC(c3cccc(F)c3)C2=O)ccc1-c1cn[nH]c1` (stereo not drawn) yielded an EC150 of 77.6 nM.
